Measurements published in US20210228562A1, “IRAK DEGRADERS AND USES THEREOF” (Kymera Therapeutics, Inc., priority 2019, published 2021).
pIC50: −log10 of the molar value.

Columns and labels:
Type in all cases: cell-based
[1] = molecular target: T1, Ikaros (protein product of gene IKZF1) (Homo sapiens, UniProt Q13422+Q96SW2); test: Quantification of Ikaros degradation in OCI-LY10 cells (quantitative immunoblotting); settings: 6 h treatment
T1 construct: endogenous in cells; host or cells: OCI-LY10
T1 sequence (Q13422 whole entry): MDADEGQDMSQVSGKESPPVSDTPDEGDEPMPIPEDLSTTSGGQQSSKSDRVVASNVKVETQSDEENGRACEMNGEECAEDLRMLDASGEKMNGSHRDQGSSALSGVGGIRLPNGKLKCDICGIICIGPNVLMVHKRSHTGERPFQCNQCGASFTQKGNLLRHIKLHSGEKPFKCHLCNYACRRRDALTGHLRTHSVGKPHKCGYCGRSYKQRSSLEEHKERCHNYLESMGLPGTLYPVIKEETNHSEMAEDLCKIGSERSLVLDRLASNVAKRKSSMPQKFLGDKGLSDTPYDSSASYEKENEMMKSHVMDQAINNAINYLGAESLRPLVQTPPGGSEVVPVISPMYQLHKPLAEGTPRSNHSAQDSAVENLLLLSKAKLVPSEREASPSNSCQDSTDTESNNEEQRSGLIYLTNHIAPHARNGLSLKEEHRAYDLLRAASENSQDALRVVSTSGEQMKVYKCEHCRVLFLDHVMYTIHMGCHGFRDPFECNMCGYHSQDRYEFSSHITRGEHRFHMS
T1 sequence (Q96SW2 whole entry): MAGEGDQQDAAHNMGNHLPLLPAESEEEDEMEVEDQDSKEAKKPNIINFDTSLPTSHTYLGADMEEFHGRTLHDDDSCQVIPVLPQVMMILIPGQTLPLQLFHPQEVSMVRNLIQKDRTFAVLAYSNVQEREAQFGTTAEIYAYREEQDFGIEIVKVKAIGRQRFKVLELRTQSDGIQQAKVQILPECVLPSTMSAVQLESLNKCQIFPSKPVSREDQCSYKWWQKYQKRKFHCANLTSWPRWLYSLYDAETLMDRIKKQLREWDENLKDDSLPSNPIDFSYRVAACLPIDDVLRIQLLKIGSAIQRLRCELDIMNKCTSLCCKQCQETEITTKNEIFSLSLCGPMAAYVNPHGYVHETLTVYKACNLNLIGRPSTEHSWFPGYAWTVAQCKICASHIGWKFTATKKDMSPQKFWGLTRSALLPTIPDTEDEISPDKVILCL
T1 sequence (Q16531 whole entry partner): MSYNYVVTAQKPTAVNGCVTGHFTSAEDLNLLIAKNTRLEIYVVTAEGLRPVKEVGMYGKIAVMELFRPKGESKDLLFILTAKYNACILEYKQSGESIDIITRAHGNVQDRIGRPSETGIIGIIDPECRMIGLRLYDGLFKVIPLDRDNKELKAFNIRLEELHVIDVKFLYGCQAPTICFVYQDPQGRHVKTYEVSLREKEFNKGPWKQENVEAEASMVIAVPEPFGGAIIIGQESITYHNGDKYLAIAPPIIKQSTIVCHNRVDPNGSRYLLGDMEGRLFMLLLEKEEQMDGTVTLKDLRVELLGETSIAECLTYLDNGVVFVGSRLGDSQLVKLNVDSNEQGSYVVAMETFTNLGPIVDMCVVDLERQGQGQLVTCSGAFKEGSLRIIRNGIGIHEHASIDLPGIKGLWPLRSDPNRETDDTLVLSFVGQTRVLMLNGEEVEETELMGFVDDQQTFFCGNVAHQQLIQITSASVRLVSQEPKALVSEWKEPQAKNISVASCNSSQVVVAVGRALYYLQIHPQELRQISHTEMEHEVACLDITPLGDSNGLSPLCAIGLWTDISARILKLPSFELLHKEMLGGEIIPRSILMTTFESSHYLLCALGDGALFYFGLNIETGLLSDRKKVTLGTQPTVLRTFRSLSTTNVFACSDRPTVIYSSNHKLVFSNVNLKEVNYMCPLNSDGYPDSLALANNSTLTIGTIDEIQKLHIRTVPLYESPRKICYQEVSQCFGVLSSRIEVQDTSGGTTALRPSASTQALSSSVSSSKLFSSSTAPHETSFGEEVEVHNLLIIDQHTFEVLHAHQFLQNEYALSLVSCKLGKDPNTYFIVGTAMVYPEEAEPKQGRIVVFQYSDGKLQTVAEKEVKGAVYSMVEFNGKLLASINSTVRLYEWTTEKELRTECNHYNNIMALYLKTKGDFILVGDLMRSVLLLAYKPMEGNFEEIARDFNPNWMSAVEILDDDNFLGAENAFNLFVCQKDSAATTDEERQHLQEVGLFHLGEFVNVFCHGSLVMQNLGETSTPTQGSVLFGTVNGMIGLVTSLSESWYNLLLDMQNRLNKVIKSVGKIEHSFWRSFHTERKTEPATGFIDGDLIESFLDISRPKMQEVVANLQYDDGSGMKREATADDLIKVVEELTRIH
Method: (§1) Degradation of Ikaros (protein product of gene IKZF1) and Aiolos (protein product of gene IKZF3) were determined by quantitative immunoblotting as follows. OCI-LY10 cells, 2×10^6 cells/well, were treated with listed concentrations of IRAK4 degraders or control compounds in 6 well plates for 6 h. Cells were collected, washed with cold PBS, lysed in RIPA buffer (Boston BioProducts BP-115D) with protease/phosphatase inhibitor cocktail (Roche 05892791001/Roche 04906837001) and centrifuged at 13000 RPM for 20 min to precipitate insoluble material. The supernatant fraction was diluted in SDS-PAGE loading buffer (Beyotime Bio P0015) and 20 μL of each sample was resolved on 4-12% Bis-Tris SDS-PAGE gels (Novex, WG1402BOX). Resolved samples were transferred to nitrocellulose membranes by wet electro-transfer method at 250 mV for 1.5 h. The membrane was blocked with LICOR blocking buffer (LI-COR, 927-50000) for 1 hour, washed three times with TBST (CST #99975) for 5 minutes each and incubated with primary antibody prepared in block buffer with 0.1% Tween-20 (Solarbio, P8220) at 4° C. overnight. Ikaros antibody was rabbit monoclonal D6N9Y (CST #14859), at 1:1000 dilution. Aiolos antibody was rabbit monoclonal D1C1E (CST #15103), at 1:1000 dilution. Signal was normalized to mouse anti-beta-Actin monoclonal 8H10D10 (CST #3700) used at 1:10,000 dilution. After incubation in primary antibodies, membranes were washed three times with TBST, 5 minutes each, incubated with fluorescently labeled secondary antibodies anti-rabbit IgG (Licor, 926-32211) at 1:5000 dilution; anti-mouse IgG (LI-COR, 926-68070) at 1:5000 dilution, for 1 hour at RT. After incubation in secondary, membranes were washed three times with TBST, 5 minutes each and read on LICOR Odyssey imager. Data was reported as signal for Ikaros or Aiolos relative to signal for actin, and normalized to DMSO-treated control.

[2] = molecular target: T2, Aiolos (protein product of gene IKZF3) (Homo sapiens, UniProt Q96SW2+Q9UKT9); test: Quantification of Aiolos degradation in OCI-LY10 cells (quantitative immunoblotting); settings: 6 h treatment
T2 construct: endogenous in cells; host or cells: OCI-LY10
T2 sequence (Q9UKT9 whole entry): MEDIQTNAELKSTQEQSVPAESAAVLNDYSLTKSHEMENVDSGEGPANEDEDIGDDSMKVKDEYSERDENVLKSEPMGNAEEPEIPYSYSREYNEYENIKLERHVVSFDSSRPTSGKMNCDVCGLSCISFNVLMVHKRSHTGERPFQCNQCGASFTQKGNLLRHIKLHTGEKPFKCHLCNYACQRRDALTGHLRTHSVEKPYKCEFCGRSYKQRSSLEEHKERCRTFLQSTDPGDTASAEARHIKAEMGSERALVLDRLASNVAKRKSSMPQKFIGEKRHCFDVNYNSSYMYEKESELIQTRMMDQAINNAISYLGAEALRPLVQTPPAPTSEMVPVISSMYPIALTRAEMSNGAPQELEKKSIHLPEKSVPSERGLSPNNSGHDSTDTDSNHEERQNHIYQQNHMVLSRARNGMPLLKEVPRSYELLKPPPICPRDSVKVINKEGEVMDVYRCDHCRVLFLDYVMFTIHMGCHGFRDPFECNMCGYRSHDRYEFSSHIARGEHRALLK
T2 sequence (Q96SW2 whole entry): as the sequence (Q96SW2 whole entry) above
T2 sequence (Q16531 whole entry partner): as the sequence (Q16531 whole entry partner) above
Method: as §1

[3] = molecular target: T3, IRAK4 (Homo sapiens, UniProt Q9NWZ3); test: IRAK4 MSD Degradation in OCI-LY10; settings: OCI-LY10 cells, 24 hrs incubation; read-out: IRAK4 degradation in OCI-LY10 at 24 hrs: DC50
T3 construct: endogenous in cells; host or cells: OCI-LY10
T3 sequence (Q9NWZ3 1-460): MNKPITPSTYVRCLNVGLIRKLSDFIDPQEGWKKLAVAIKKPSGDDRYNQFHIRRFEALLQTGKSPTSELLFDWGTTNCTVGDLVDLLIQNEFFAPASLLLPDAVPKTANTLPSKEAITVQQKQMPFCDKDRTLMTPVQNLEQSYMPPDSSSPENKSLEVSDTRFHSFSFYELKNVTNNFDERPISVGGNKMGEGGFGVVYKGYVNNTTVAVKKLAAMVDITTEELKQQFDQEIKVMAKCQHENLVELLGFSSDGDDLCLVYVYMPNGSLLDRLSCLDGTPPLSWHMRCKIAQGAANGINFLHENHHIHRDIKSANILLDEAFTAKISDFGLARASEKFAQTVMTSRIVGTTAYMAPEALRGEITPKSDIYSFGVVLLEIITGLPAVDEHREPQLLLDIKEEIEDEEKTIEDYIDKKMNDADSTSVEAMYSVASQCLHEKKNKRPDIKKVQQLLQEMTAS
Method: Degradation of IRAK4 in OCI-LY10 was quantitatively measured using Meso Scale Discovery technology. OCI-LY10 cells were seeded in 96-well plates (Corning 3799) with a density of 300,000 cells per well in 100 μL fresh media. Compounds were then added to the assay plates with a final top concentration of 1 to 10 μM in a 1:3 dilution series with total of 8 doses. The assay plates were then incubated for 4 to 24 hours at 37° C. under 5% CO2. The assay plates were then centrifuged for 5 minutes and the cell pellets were treated with 100 μL/well RIPA lysis buffer (Boston BioProducts BP-115D) with proteinase inhibitors. To prepare MSD assay plates (Meso Scale Discovery Catalog number L15XA-3), the plates were coated with 2 μg/mL capture antibody (mouse Anti-IRAK4 antibody [2H9], ab119942) in PBS, at 40 μL/well. The plates were then incubated overnight at 4° C., washed 3 times with 150 μL/well TBST buffer (Cell Signaling Technology, Catalog number 9997S) and blocked with 150 μL/well blocking buffer (Meso Scale Discovery Catalog number R93BA-4). Cell lysates were then added to MSD assay plates and the plates were incubated at room temperature for 1 hour. The plates were then washed 3 times with 150 μL/well TBST buffer and 25 μL/well primary detection antibody (rabbit Anti-IRAK4 antibody [Y279], from Abcam. Catalog number ab32511, 1 μg/mL). The assay plates were then incubated at room temperature for 1 hour, washed 3 times with 150 μL/well TBST buffer and 25 μL/well secondary detection antibody, SULFO-TAG anti-rabbit antibody were added (anti rabbit antibody from Meso Scale Discovery, Catalog number R32AB-1, 1 μg/mL). The assay plates were then incubated at room temperature for 1 hour, washed 3 times with 150 μL/well TBST buffer, and 150 μL/well MSD reading buffer (Meso Scale Discovery catalog number R92TC-2) was added. The plates were then analyzed by a MSD reader (Meso Scale Discovery, Model Quick Plex SQ 120). The data was then analyzed by software Prism 7.0 from GraphPad and the dose-depended IRAK4 degradation were fit using a three-parameter logistic equation to calculate DC50.

[4] = test system: OCI-LY10 cells; test: CTG Cell Viability Assay - OCI-LY10; settings: Homo sapiens, 96 h, CellTiter-Glo, 4 days incubation
Method: Compound-mediated viability effect on OCI-LY10 or SUDHL-2 was quantitatively determined using the CellTiter-Glo® Luminescent Cell Viability Assay kit from Promega (Catalog number G7570) following manufacturer's recommended procedures. Briefly, OCI-LY10 or SUDHL-2 cells were seeded into 384 well plates (Grenier Bio-One, Catalog number 781080) with a density of 10,000 cells per well. Compounds were then added to the assay plate with final top concentration of 10 μM and 1:3 dilution series with total of 9 doses. The final DMSO concentration was normalized to 0.2%. The assay plates were incubated at 37° C. for 4 days under 5% CO2. Then the assay plate was equilibrated at room temperature for 10 minutes. To determine cell viability, 30 μL CellTiter Glo reagent was added to each well and the assay plate was centrifuged at 1000 rpm for 30 second, incubated at room temperature for 10 min, and analyzed by detecting the luminescence using a multimode plate reader (EnVision 2105, PerkinElmer). The data was then analyzed by software Prism 7.0 from GraphPad and the dose response curves were fit using a three-parameter logistic equation to calculate IC50.

CC(C)(O)c1cc2nc([C@H]3CC[C@H](CN4CCC5(CC4)CC(CNc4cccc6c4C(=O)N(C4CCC(=O)NC4=O)C6=O)C5)CC3)sc2cc1NC(=O)c1cccc(C(F)(F)F)n1 (some centres unmarked) [I-29]
DC50 [1]: < 0.05 µM
DC50 [2]: < 0.05 µM
DC50 [3]: < 0.05 µM
pIC50 [4]: > 7.30

C[C@@H](CNc1cccc2c1C(=O)N(C1CCC(=O)NC1=O)C2=O)C1CC2(C1)CN(C[C@H]1CC[C@H](c3nc4cc(C(C)(C)O)c(NC(=O)c5cccc(C(F)(F)F)n5)cc4s3)CC1)C2 (some centres unmarked) [I-32]
DC50 [1]: < 0.05 µM
DC50 [2]: < 0.05 µM
DC50 [3]: < 0.05 µM
pIC50 [4]: 7.00 to 7.30

CC(C)(O)c1cc2nc([C@H]3CC[C@H](CN4CCC5(CC4)CC4(CC(CCNc6cccc7c6C(=O)N(C6CCC(=O)NC6=O)C7=O)C4)C5)CC3)sc2cc1NC(=O)c1cccc(C(F)(F)F)n1 (some centres unmarked) [I-59]
DC50 [1]: 0.1 to 0.5 µM
DC50 [2]: 0.1 to 0.5 µM
DC50 [3]: 0.1 to 0.5 µM
pIC50 [4]: 6.30 to 7.00

COc1cc2nc([C@H]3CC[C@H](CN4CCC5(CC4)CC(CCNc4cccc6c4C(=O)N(C4CCC(=O)NC4=O)C6=O)C5)CC3)sc2cc1NC(=O)c1cccc(C(C)(F)F)n1 (some centres unmarked) [I-19]
DC50 [1]: 0.05 to 0.1 µM
DC50 [2]: < 0.05 µM
DC50 [3]: 0.05 to 0.1 µM
pIC50 [4]: 6.30 to 7.00

CC(C)(O)c1cc2nc([C@H]3CC[C@H](CN4CCC(CCNc5cccc6c5C(=O)N(C5CCC(=O)NC5=O)C6=O)CC4)CC3)sc2cc1NC(=O)c1cccc(C(F)(F)F)n1 (some centres unmarked) [I-24]
DC50 [1]: < 0.05 µM
DC50 [2]: < 0.05 µM
DC50 [3]: < 0.05 µM
pIC50 [4]: > 7.30

CC(C)(O)c1cc2nc([C@H]3CC[C@H](CN4CC5(CCC(CNc6cccc7c6C(=O)N(C6CCC(=O)NC6=O)C7=O)CC5)C4)CC3)sc2cc1NC(=O)c1cccc(C(F)(F)F)n1 (some centres unmarked) [I-30]
DC50 [1]: < 0.05 µM
DC50 [2]: < 0.05 µM
DC50 [3]: < 0.05 µM
pIC50 [4]: 7.00 to 7.30

Cc1cccc(C(=O)Nc2cc3sc([C@H]4CC[C@H](CN(C)[C@H]5CC[C@H](Nc6cccc7c6C(=O)N(C6CCC(=O)NC6=O)C7=O)CC5)CC4)nc3cc2C(C)(C)O)n1 (some centres unmarked) [I-23]
DC50 [1]: 0.1 to 0.5 µM
DC50 [2]: < 0.05 µM
DC50 [3]: < 0.05 µM
pIC50 [4]: 6.30 to 7.00

CC(C)(O)c1cc2nc([C@H]3CC[C@H](CN4CC5(CC(CCNc6cccc7c6C(=O)N(C6CCC(=O)NC6=O)C7=O)C5)C4)CC3)sc2cc1NC(=O)c1cccc(C(F)(F)F)c1 (some centres unmarked) [I-53]
DC50 [1]: < 0.05 µM
DC50 [2]: < 0.05 µM
DC50 [3]: 0.1 to 0.5 µM
pIC50 [4]: > 7.30

CC1(C)OC2(C)c3ccccc3CCN2c2cc3sc([C@H]4CC[C@H](CN5CC6(CC(CCNc7cccc8c7C(=O)N(C7CCC(=O)NC7=O)C8=O)C6)C5)CC4)nc3cc21 (some centres unmarked) [I-49]
DC50 [1]: < 0.05 µM
DC50 [2]: < 0.05 µM
DC50 [3]: > 1 µM
pIC50 [4]: 7.00 to 7.30

CC(C)(O)c1cc2nc([C@H]3CC[C@H](CN4CC5(CC(CCNc6cccc7c6C(=O)N(C6CCC(=O)NC6=O)C7=O)C5)C4)CC3)sc2cc1N1CCc2ccccc2C1=O (some centres unmarked) [I-60]
DC50 [3]: < 0.05 µM
pIC50 [4]: > 7.30

CC(C)(O)c1cc2nc([C@H]3CC[C@H](CN4CC5(CC(CCNc6cccc7c6C(=O)N(C6CCC(=O)NC6=O)C7=O)C5)C4)CC3)sc2cc1NC(=O)c1ccccn1 (some centres unmarked) [I-57]
pIC50 [4]: > 7.30

CN(C[C@H]1CC[C@H](c2nc3cc(C(C)(C)O)c(NC(=O)c4cccc(C(F)(F)F)n4)cc3s2)CC1)[C@H]1CC[C@H](Nc2cccc3c2C(=O)N(C2CCC(=O)NC2=O)C3=O)CC1 (some centres unmarked) [I-28]
DC50 [1]: 0.05 to 0.1 µM
DC50 [2]: < 0.05 µM
DC50 [3]: < 0.05 µM
pIC50 [4]: 6.30 to 7.00

CC(C)(O)c1cc2nc([C@H]3CC[C@H](N4CC5(CC(CCNc6cccc7c6C(=O)N(C6CCC(=O)NC6=O)C7=O)C5)C4)CC3)sc2cc1NC(=O)c1cccc(C(F)(F)F)n1 (single isomer, unassigned) [I-63]
DC50 [1]: < 0.05 µM
DC50 [2]: < 0.05 µM
DC50 [3]: < 0.05 µM
pIC50 [4]: > 7.30

CC(C)(O)c1cc2nc([C@H]3CC[C@H](CN4CC5(CC(CCNc6cccc7c6C(=O)N(C6CCC(=O)NC6=O)C7=O)C5)C4)CC3)sc2cc1NC(=O)c1cccc(C(C)(F)F)c1 (some centres unmarked) [I-50]
DC50 [1]: < 0.05 µM
DC50 [2]: < 0.05 µM
DC50 [3]: 0.5 to 1 µM
pIC50 [4]: > 7.30

COc1cc2nc([C@H]3CC[C@H](CN4CC5(CCC(CNc6cccc7c6C(=O)N(C6CCC(=O)NC6=O)C7=O)CC5)C4)CC3)sc2cc1NC(=O)c1cccc(C(F)(F)F)n1 (some centres unmarked) [I-20]
DC50 [1]: 0.1 to 0.5 µM
DC50 [2]: 0.1 to 0.5 µM
DC50 [3]: 0.05 to 0.1 µM
pIC50 [4]: > 7.30

CC(C)(O)c1cc2nc([C@H]3CC[C@@H](CN4CC5(CC(CCNc6cccc7c6C(=O)N(C6CCC(=O)NC6=O)C7=O)C5)C4)CC3)sc2cc1NC(=O)c1cccc(C(F)(F)F)n1 (stereo partly drawn) [I-62, N-(2-((1S,4S)-4-((6-(2-((2-(2,6-dioxopiperidin-3-yl)-1,3-dioxoisoindolin-4-yl)amino)ethyl)-2-azaspiro[3.3]heptan-2-yl)methyl)cyclohexyl)-5-(2-hydroxypropan-2-yl)benzo[d]thiazol-6-yl)-6-(trifluoromethyl)picolinamide]
DC50 [1]: < 0.05 µM
DC50 [2]: < 0.05 µM
DC50 [3]: 0.05 to 0.1 µM

CC(C)(O)c1cc2nc([C@H]3CC[C@@H](N4CC5(CC(CCNc6cccc7c6C(=O)N(C6CCC(=O)NC6=O)C7=O)C5)C4)CC3)sc2cc1NC(=O)c1cccc(C(F)(F)F)n1 (single isomer, unassigned) [I-64]
pIC50 [4]: > 7.30

Cc1nccc(C(=O)Nc2cc3sc([C@H]4CC[C@H](CN5CC6(CC(CCNc7cccc8c7C(=O)N(C7CCC(=O)NC7=O)C8=O)C6)C5)CC4)nc3cc2C(C)(C)O)n1 (some centres unmarked) [I-51]
DC50 [3]: > 1 µM
pIC50 [4]: > 7.30

CC(C)(O)c1cc2nc([C@H]3CC[C@H](CN4CC5(CC(CCNc6cccc7c6C(=O)N(C6CCC(=O)NC6=O)C7=O)C5)C4)CC3)sc2cc1NC(=O)c1cnccn1 (some centres unmarked) [I-58]
pIC50 [4]: > 7.30
